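Briefly, cells in 96-well plates were exposed to five compound concentrations for 48 h, and endpoints were estimated by linear interpolation. At the GI50, growth is halved. TGI denotes the concentration required for complete inhibition of growth.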
Experiments:
Assay in all cases: NCI tumour cell line growth inhibition, 48 h
[1] = tested on: NCI-H23 lung
[2] = tested on: NCI-H460 lung
[3] = tested on: NCI/ADR-RES ovarian
[4] = tested on: OVCAR-3 ovarian
[5] = tested on: OVCAR-4 ovarian
[6] = tested on: OVCAR-5 ovarian
[7] = tested on: OVCAR-8 ovarian
[8] = tested on: PC-3 prostate
[9] = tested on: RPMI-8226 leukemia
[10] = tested on: RXF 393 renal
[11] = tested on: SF-268 CNS
[12] = tested on: SF-295 CNS
[13] = tested on: SF-539 CNS
[14] = tested on: SK-MEL-2 melanoma
[15] = tested on: SK-MEL-28 melanoma
[16] = tested on: SK-MEL-5 melanoma
[17] = tested on: SK-OV-3 ovarian
[18] = tested on: SN12C renal
[19] = tested on: SNB-19 CNS
[20] = tested on: SNB-75 CNS
[21] = tested on: SR leukemia
[22] = tested on: SW-620 colon
[23] = tested on: T-47D breast
[24] = tested on: TK-10 renal
[25] = tested on: U251 CNS
[26] = tested on: UACC-257 melanoma
[27] = tested on: UACC-62 melanoma
[28] = tested on: UO-31 renal

Which results are given for `COc1ccc2c(c1)OCC1c3cc(O)ccc3OC21` (stereo unspecified)?
GI50 [1]: 30.1 µM; TGI [1]: > 100 µM; GI50 [2]: 25 µM; TGI [2]: > 100 µM; GI50 [3]: 33.2 µM; TGI [3]: > 100 µM; GI50 [4]: 27 µM; TGI [4]: > 100 µM; GI50 [5]: 28.1 µM; TGI [5]: > 100 µM; GI50 [6]: 39.5 µM; TGI [6]: > 100 µM; GI50 [7]: > 100 µM; TGI [7]: > 100 µM; GI50 [8]: 34.4 µM; TGI [8]: > 100 µM; GI50 [9]: 32.8 µM; TGI [9]: > 100 µM; GI50 [10]: 72.6 µM; TGI [10]: > 100 µM; GI50 [11]: 11 µM; TGI [11]: 74 µM; GI50 [12]: 9.91 µM; TGI [12]: 90.9 µM; GI50 [13]: 54.5 µM; TGI [13]: > 100 µM; GI50 [14]: > 100 µM; TGI [14]: > 100 µM; GI50 [15]: > 100 µM; TGI [15]: > 100 µM; GI50 [16]: 33 µM; TGI [16]: > 100 µM; GI50 [17]: 63.2 µM; TGI [17]: > 100 µM; GI50 [18]: 73.3 µM; TGI [18]: > 100 µM; GI50 [19]: 52.1 µM; TGI [19]: > 100 µM; GI50 [20]: 34 µM; TGI [20]: > 100 µM; GI50 [21]: 46.3 µM; TGI [21]: > 100 µM; GI50 [22]: > 100 µM; TGI [22]: > 100 µM; GI50 [23]: 16.2 µM; TGI [23]: 65.4 µM; GI50 [24]: 38.9 µM; TGI [24]: > 100 µM; GI50 [25]: 54.9 µM; TGI [25]: > 100 µM; GI50 [26]: 78.3 µM; TGI [26]: > 100 µM; GI50 [27]: 35.9 µM; TGI [27]: > 100 µM; GI50 [28]: 24.3 µM; TGI [28]: > 100 µM
